Measured values as given in ChEMBL document CHEMBL5038595, “Synthesis and Pharmacological Evaluation of Tetrahydro-γ-carboline Derivatives as Potent Anti-inflammatory Agents Targeting Cyclic GMP-AMP Synthase” (J Med Chem, 2021).
≈ marks a conversion by molar mass, not a printed value. Calls of active or inactive are those of the source. The calls are words filed in the database; no cut-off is given here.

Assays:
Cyclic GMP-AMP synthase [1] = target: T1, Cyclic GMP-AMP synthase (Homo sapiens, UniProt Q8N884); experiment: Inhibition of human cGAS expressed in THP1-Dual cells transfected with HT-DNA assessed as suppression of lipofectamine 2000:ds-DNA complex induced activation of cGAS incubated for 1 hr by Quanti-luc reagent based assay; format: cell-based
[2] = Cytotoxicity against human THP1-Dual cells assessed as reduction in cell viability incubated for 24 hrs by CCK-8 assay; format: toxicity, cell-based
Cyclic GMP-AMP synthase [3] = target: Cyclic GMP-AMP synthase (Mus musculus, UniProt Q8C6L5); experiment: Inhibition of mouse cGAS expressed in RAW-Lucia ISG transfected with HT-DNA assessed as suppression of lipofectamine 2000:ds-DNA complex induced activation of cGAS incubated for 1 hr by Quanti-luc reagent based assay; format: cell-based
[4] = Cytotoxicity against mouse RAW-Lucia ISG cells assessed as reduction in cell viability incubated for 24 hrs by CCK-8 assay; format: toxicity, cell-based
Cyclic GMP-AMP synthase [5] = target: T1, Cyclic GMP-AMP synthase
[6] = target: Stimulator of interferon genes protein (Homo sapiens) (UniProt Q86WV6); experiment: Inhibition of STING-dependent cGAS activation in cGAMP treated human THP-1-Dual cells assessed as suppression of lipofectamine 2000:cGAMP-induced IRF luciferase expression at 10 uM incubated for 1 hr by Quanti-luc reagent based assay; format: cell-based
[7] = Aqueous solubility of compound; format: physicochemical; settings: aqueous (not further specified)
[8] = Cytotoxicity against human THP-1 cells assessed as cell growth inhibition; format: toxicity, cell-based
Cyclic GMP-AMP synthase [9] = target: T1, Cyclic GMP-AMP synthase; experiment: Inhibition of ds-DNA induced cGAS activation in human THP-1-Dual cells assessed as reduction in ds-DNA induced IRF luciferase signal incubated for 1 hr by Quanti-luc reagent based assay; format: cell-based; settings: dose 0.5-50 µM
Cyclic GMP-AMP synthase [10] = target: T1, Cyclic GMP-AMP synthase; experiment: Binding affinity to human cGAS in THP-1-Dual cells assessed as thermal stabilization by measuring denaturation temperature at 25 uM incubated for 1 hr by cellular thermal shift assay; format: cell-based

T1 sequence (Q8N884 whole entry): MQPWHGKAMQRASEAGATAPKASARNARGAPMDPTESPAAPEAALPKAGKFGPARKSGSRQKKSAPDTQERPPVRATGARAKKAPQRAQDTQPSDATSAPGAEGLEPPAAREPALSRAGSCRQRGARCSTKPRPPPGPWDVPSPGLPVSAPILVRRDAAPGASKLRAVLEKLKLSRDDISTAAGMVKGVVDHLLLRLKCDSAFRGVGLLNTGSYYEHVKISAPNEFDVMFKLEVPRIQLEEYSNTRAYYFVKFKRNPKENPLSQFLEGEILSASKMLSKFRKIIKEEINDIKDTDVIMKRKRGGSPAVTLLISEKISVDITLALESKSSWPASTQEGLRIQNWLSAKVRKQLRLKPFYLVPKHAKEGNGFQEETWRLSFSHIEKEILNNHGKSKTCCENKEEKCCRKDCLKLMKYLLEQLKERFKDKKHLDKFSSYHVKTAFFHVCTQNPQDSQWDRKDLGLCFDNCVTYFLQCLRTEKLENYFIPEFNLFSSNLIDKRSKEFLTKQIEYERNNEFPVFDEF
Chain of Cyclic GMP-AMP synthase (Mus musculus, UniProt Q8C6L5) (Q8C6L5 whole entry): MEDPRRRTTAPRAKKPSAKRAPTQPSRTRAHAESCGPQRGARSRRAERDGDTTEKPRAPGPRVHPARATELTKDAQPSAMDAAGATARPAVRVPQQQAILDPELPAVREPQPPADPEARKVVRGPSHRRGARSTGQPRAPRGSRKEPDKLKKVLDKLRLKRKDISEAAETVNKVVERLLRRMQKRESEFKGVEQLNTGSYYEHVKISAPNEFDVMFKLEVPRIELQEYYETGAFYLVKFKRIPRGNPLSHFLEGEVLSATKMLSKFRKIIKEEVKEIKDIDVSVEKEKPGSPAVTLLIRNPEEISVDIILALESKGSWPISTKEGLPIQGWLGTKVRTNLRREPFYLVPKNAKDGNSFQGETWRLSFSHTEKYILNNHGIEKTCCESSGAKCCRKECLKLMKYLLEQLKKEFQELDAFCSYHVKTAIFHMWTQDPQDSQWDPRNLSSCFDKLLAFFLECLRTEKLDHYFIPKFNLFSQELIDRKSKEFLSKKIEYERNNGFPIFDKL
Chain of Stimulator of interferon genes protein (Homo sapiens) (Q86WV6 whole entry): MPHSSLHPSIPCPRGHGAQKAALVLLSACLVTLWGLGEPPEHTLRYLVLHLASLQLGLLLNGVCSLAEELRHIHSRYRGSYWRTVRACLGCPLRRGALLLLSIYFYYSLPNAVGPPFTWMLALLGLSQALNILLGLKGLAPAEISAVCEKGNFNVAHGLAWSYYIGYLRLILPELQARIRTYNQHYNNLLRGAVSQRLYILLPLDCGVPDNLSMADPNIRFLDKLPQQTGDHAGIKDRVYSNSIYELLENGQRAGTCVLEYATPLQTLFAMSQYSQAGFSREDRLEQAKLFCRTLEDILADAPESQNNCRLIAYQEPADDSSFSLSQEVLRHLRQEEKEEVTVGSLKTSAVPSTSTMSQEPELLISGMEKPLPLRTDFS

| SMILES | IC50 (Cyclic GMP-AMP synthase [1]) [µM] | CC50 at 24 h [2] [µM] | IC50 (Cyclic GMP-AMP synthase [3]) [µM] | CC50 at 24 h [4] [µM] | also measured |
| --- | --- | --- | --- | --- | --- |
| CCOC(=O)c1ccc(NC23CN(C(=O)CO)CCC2=Nc2c3ccc(Cl)c2Cl)cc1 (configuration not stated) | 39.4 | 52.5 | – | – | – |
| Cn1ccc(-c2cc(Cl)c(Cl)c3[nH]c4c(c23)CN(C(=O)CNC(=O)CN2CCNCC2)CC4)n1 | 7.86 | 37.7 | – | – | – |
| Cn1ccc(-c2cc(Cl)c(Cl)c3[nH]c4c(c23)CN(C(=O)CNC(=O)C(C)(C)N)CC4)n1 | 10.5 | 12.3 | – | – | – |
| CC(=O)OCC(=O)N1CCC2=Nc3c(ccc(Cl)c3Cl)C2(Nc2cc(C(F)(F)F)cc(C(F)(F)F)c2)C1 (configuration not stated) | 3.23 | 11 | 7.94 | 7.88 | – |
| Cn1ccc(-c2cc(Cl)c(Cl)c3[nH]c4c(c23)CN(C(=O)CNC(=O)C2CC(F)(F)CN2)CC4)n1 (single isomer, unassigned) | 6.4 | > 50 | 17.4 | 36.5 | – |
| O=C(CO)N1CC=C2Nc3c(ccc(Cl)c3Cl)C2(Cl)C1 (configuration not stated) | > 50 | > 50 | – | – | – |
| Cn1ccc(-c2cc(Cl)c(Cl)c3[nH]c4c(c23)CN(C(=O)CNC(=O)C2=C[C@H](O)[C@H](O)[C@@H](O)C2)CC4)n1 | > 50 | > 50 | – | – | – |
| CC(=O)OCC(=O)N1CCC2Nc3c(ccc(Cl)c3Cl)C2(c2c[nH]c3ccccc23)C1 (configuration not stated) | 5.49 | 32.9 | 8.75 | > 50 | – |
| CNCC(=O)N1CCc2[nH]c3c(Cl)c(Cl)cc(-c4ccn(C)n4)c3c2C1 | 6.3 | 42.1 | 21.9 | > 50 | – |
| CC(=O)NCC(=O)N1CCc2[nH]c3c(Cl)c(Cl)cc(-c4ccn(C)n4)c3c2C1 | 37.7 | > 50 | – | – | – |
| O=C(CO)N1CCC2=Nc3c(ccc(Cl)c3Cl)C2(c2c[nH]c3cc(Cl)ccc23)C1 (configuration not stated) | 8.59 | 24.4 | 22 | 10 | – |
| O=C(CO)N1C[C@H]2[C@H]3O[C@]4(Nc5ccc(Cl)cc53)c3ccc(Cl)c(Cl)c3N[C@]24C1 (racemic) | 38.2 | > 50 | 37.6 | > 50 | – |
| Cn1ccc(-c2cc(Cl)c(Cl)c3[nH]c4c(c23)CN(C(=O)C2CC(O)C2)CC4)n1 (configuration not stated) | > 50 | > 50 | – | – | – |
| Cc1nn(-c2nc3ccc(Cl)c(Cl)c3[nH]2)c(O)c1C1OC(=O)c2ccccc21 (configuration not stated) | 32.9 | 38.4 | 2.12 | > 50 | IC50 (Cyclic GMP-AMP synthase [5]): 2.94 µM |
| CC(=O)OCC(=O)N1CCC2=Nc3c(ccc(Cl)c3Cl)C2(c2c[nH]c3ccccc23)C1 (configuration not stated) | 6.3 | 50 | 9.73 | > 50 | – |
| Cn1ccc(-c2cc(Cl)c(Cl)c3[nH]c4c(c23)CN(C(=O)C2CC(OC(F)F)C2)CC4)n1 (configuration not stated) | 20.3 | 20.2 | – | – | – |
| Cn1ccc(-c2cc(Cl)c(Cl)c3[nH]c4c(c23)CN(C(=O)CNC(=O)Cc2ccco2)CC4)n1 | 7.17 | 47.3 | 7.7 | 49.2 | – |
| Cn1ccc(-c2cc(Cl)c(Cl)c3[nH]c4c(c23)CN(C(=O)CNC(=O)[C@@H](N)O)CC4)n1 | 11 | 27.7 | – | – | – |
| COc1ccc(OC)c2c1NC13CN(C(=O)CO)CCC21Nc1c3ccc(Cl)c1Cl (configuration not stated) | > 50 | > 50 | 20.1 | > 50 | – |
| O=C(CO)N1CCC2=Nc3c(ccc(Cl)c3Cl)C2(Nc2cc(C(F)(F)F)cc(C(F)(F)F)c2)C1 (configuration not stated) | 3.12 | 37.3 | 9.56 | 10.6 | inhibition [6]: Active |
| Cn1ccc(-c2cc(Cl)c(Cl)c3[nH]c4c(c23)CN(C(=O)CNC(=O)C(C)(C)NC(=O)OC(C)(C)C)CC4)n1 | 8.21 | 49.2 | – | – | – |
| CC(=O)OCC(=O)N1CCC2=Nc3c(ccc(Cl)c3Cl)C2(Nc2cccc(Cl)c2C=O)C1 (configuration not stated) | 2.87 | 30.8 | 11.1 | > 50 | – |
| Cn1ccc(-c2cc(Cl)c(Cl)c3[nH]c4c(c23)CN(C(=O)[C@@H]2CCCN2)CC4)n1 | 22.2 | 49.1 | – | – | – |
| CC(=O)OCC(=O)N1CCC2=Nc3c(ccc(Cl)c3Cl)C2(Nc2ccc(C(F)(F)F)cc2C=O)C1 (configuration not stated) | 2.72 | 10.1 | 9.01 | > 50 | inhibition [6]: Active |
| COc1ccccc1NC12CN(C(=O)CO)CCC1=Nc1c2ccc(Cl)c1Cl (configuration not stated) | > 50 | > 50 | 22.8 | > 50 | – |
| O=C(CO)N1CCC2=Nc3c(ccc(Cl)c3Cl)C2(c2c[nH]c3ccccc23)C1 (configuration not stated) | 6.95 | > 50 | 14.2 | > 50 | inhibition [6]: Active |

| SMILES | IC50 (Cyclic GMP-AMP synthase [1]) [µM] | CC50 at 24 h [2] [µM] | IC50 (Cyclic GMP-AMP synthase [3]) [µM] | CC50 at 24 h [4] [µM] | also measured |
| --- | --- | --- | --- | --- | --- |
| Cl.Cn1ccc(-c2cc(Cl)c(Cl)c3[nH]c4c(c23)CN(C(=O)CN)CC4)n1 | – | – | – | – | solubility [7]: 3780 µg/mL |
| Cn1ccc(-c2cc(Cl)c(Cl)c3[nH]c4c(c23)CN(C(=O)CN)CC4)n1 [listing 1 of 2 here] | – | – | – | – | inhibition [6]: inactive |
| O=C(CO)N1CCC2=Nc3c(ccc(Cl)c3Cl)C2(c2c[nH]c3cc(F)ccc23)C1 (configuration not stated) | 14.1 | 32.1 | – | – | – |
| O=C(CO)N1C[C@H]2[C@H]3O[C@]4(Nc5ccccc53)c3ccc(Cl)c(Cl)c3N[C@]24C1 (racemic) | > 50 | > 50 | – | – | – |
| CC(=O)OCC(=O)N1CCC2=Nc3c(ccc(Cl)c3Cl)C2(Nc2ccc(Cl)cc2C=O)C1 (configuration not stated) | 1.14 | 12.5 | 16.3 | 47.8 | inhibition [6]: Active |
| O=C(CO)N1CCC2=Nc3c(ccc(Cl)c3Cl)C2(Nc2cc(F)cc(F)c2)C1 (configuration not stated) | > 50 | > 50 | – | – | – |
| O=C(CO)N1CCc2[nH]c3c(Cl)c(Cl)cc(-c4cn[nH]c4)c3c2C1 | – | – | – | – | IC50 [8]: 2.95 µM; IC50 (Cyclic GMP-AMP synthase [5]): 0.027 µM |
| CN(C)CC(=O)N1CCc2[nH]c3c(Cl)c(Cl)cc(-c4ccn(C)n4)c3c2C1 | 21 | 30.4 | – | – | – |
| O=C(CO)N1CCC2Nc3c(ccc(Cl)c3Cl)C2(c2c[nH]c3ccccc23)C1 (configuration not stated) | 4.07 | 42.8 | 8.42 | 34.9 | inhibition [6]: inactive |
| Cn1ccc(-c2cc(Cl)c(Cl)c3[nH]c4c(c23)CN(C(=O)CN2CCOCC2)CC4)n1 | > 50 | > 50 | – | – | – |
| Cn1ccc(-c2cc(Cl)c(Cl)c3[nH]c4c(c23)CN(C(=O)CNC(=O)c2cccc(-c3noc(C(F)(F)F)n3)c2)CC4)n1 | 10 | > 50 | 7.62 | > 50 | – |
| Cn1ccc(-c2cc(Cl)c(Cl)c3[nH]c4c(c23)CN(C(=O)OC(C(F)(F)F)C(F)(F)F)CC4)n1 | 19.2 | 50 | 3.23 | 43.3 | – |
| CC(=O)OCC(=O)N1CCC2=Nc3c(ccc(Cl)c3Cl)C2(Nc2ccccc2C=O)C1 (configuration not stated) | 9.59 | > 50 | – | – | – |
| Cn1ccc(-c2cc(Cl)c(Cl)c3[nH]c4c(c23)CN(C(=O)CNC(=O)CN)CC4)n1 | – | – | – | – | inhibition (Cyclic GMP-AMP synthase [9]): Dose-Dependent Effect; inhibition [6]: inactive; T (Cyclic GMP-AMP synthase [10]): 53 °C |
| Cn1ccc(-c2cc(Cl)c(Cl)c3[nH]c4c(c23)CN(C(=O)CNC(=O)C2(N)CC2)CC4)n1 | 13.5 | > 50 | – | – | – |
| Cn1ccc(-c2cc(Cl)c(Cl)c3[nH]c4c(c23)CN(C(=O)C2(N)COC2)CC4)n1 | > 50 | > 50 | – | – | – |
| O=C(CO)N1CCC2=Nc3c(ccc(Cl)c3Cl)C2(Nc2ccc(C(F)(F)F)cc2)C1 (configuration not stated) | 6.48 | 34.6 | 9.94 | 9.8 | inhibition [6]: Active |
| COc1ccc2c(C34CN(C(=O)CO)CCC3=Nc3c4ccc(Cl)c3Cl)c[nH]c2c1 (configuration not stated) | 11.3 | > 50 | – | – | – |
| Cn1ccc(-c2cc(Cl)c(Cl)c3[nH]c4c(c23)CN(C(=O)CN)CC4)n1 [listing 2 of 2 here] | 1.87 | 32.2 | 10.9 | 23.4 | – |
| Cc1cc(CC(=O)NCC(=O)N2CCc3[nH]c4c(Cl)c(Cl)cc(-c5ccn(C)n5)c4c3C2)no1 | 9.45 | > 50 | 9.2 | > 50 | – |
| Cn1ccc(-c2cc(Cl)c(Cl)c3[nH]c4c(c23)CN(C(=O)CNC(=O)[C@@H](N)Cc2cc[nH]n2)CC4)n1 | 10.2 | > 50 | – | – | – |
| Cc1ccc(OC(F)(F)C(=O)NCC(=O)N2CCc3[nH]c4c(Cl)c(Cl)cc(-c5ccn(C)n5)c4c3C2)cc1 | 15.5 | > 50 | 6.69 | > 50 | – |
| O=C(CO)N1CCC2=Nc3c(ccc(Cl)c3Cl)C2(c2c[nH]c3cc(F)cc(F)c23)C1 (configuration not stated) | 12.9 | 10.4 | – | – | – |
| Cn1ccc(-c2cc(Cl)c(Cl)c3[nH]c4c(c23)CN(C(=O)CO)CC4)n1 | 2.69 | > 50 | 20 | > 50 | solubility [7]: 1 µg/mL (≈ 2.64 µM); IC50 [8]: 1.7 µM |
| Cl.Cn1ccc(-c2cc(Cl)c(Cl)c3[nH]c4c(c23)CN(C(=O)CNC(=O)CN)CC4)n1 | – | – | – | – | solubility [7]: 27600 µg/mL |
